For orientation: inhibition means the share of the control response that was lost under treatment. A low value points to a weak effect.

Test [1] deals with Phosphatidylinositol 4,5-bisphosphate 3-kinase catalytic subunit gamma isoform (Homo sapiens) (UniProt P48736). In words: Inhibition of PI3Kgamma expressed in Escherichia coli or baculovirus-infected insect cells at 667 uM by fluorescence polarization assay. (In general: Polarisation of emitted light reports the rotation of a fluorescent probe.)
For test [2], the target named is Mitogen-activated protein kinase 8 (Homo sapiens, UniProt P45983). In words: Inhibition of JNK1 expressed in Escherichia coli or baculovirus-infected insect cells at 667 uM by TR-FRET assay. A general note: In TR-FRET formats the signal depends on donor and acceptor labels being close together.
Test [3] deals with RAC-alpha serine/threonine-protein kinase (Homo sapiens, UniProt P31749). In words: Inhibition of AKT1 expressed in Escherichia coli or baculovirus-infected insect cells using gamma-[33P]ATP at 400 uM by scintillation proximity assay. (In general: Scintillation proximity formats need no separation of bound from free tracer.)
For test [4], the target named is T1, Aurora kinase A (Homo sapiens) (UniProt O14965).
T1 sequence (whole entry): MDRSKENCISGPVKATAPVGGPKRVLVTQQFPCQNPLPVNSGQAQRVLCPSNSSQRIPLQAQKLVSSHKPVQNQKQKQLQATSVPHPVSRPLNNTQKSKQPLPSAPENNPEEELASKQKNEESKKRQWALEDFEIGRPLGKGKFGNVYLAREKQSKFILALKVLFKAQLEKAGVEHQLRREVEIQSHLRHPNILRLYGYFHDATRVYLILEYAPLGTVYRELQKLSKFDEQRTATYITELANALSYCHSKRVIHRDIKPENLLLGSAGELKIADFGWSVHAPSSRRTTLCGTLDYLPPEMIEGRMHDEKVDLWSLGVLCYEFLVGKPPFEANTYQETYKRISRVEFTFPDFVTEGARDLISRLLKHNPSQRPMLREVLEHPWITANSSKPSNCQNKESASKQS
In words: Inhibition of AurA expressed in Escherichia coli or baculovirus-infected insect cells at 400 uM by IMAP assay.

The target in test [5] is Serine/threonine-protein kinase B-raf (Homo sapiens) (UniProt P15056). In words: Inhibition of B-Raf expressed in Escherichia coli or baculovirus-infected insect cells using ATP as substrate at 400 uM by fluorescence polarization assay.
Test [6] deals with Glycogen synthase kinase-3 beta (Homo sapiens) (UniProt P49841). In words: Inhibition of GSK3-beta expressed in Escherichia coli or baculovirus-infected insect cells using ATP as substrate at 667 uM by fluorescence polarization assay.
For test [7], the target named is T2, Tyrosine-protein kinase ITK/TSK (Homo sapiens) (UniProt Q08881).
T2 sequence (whole entry): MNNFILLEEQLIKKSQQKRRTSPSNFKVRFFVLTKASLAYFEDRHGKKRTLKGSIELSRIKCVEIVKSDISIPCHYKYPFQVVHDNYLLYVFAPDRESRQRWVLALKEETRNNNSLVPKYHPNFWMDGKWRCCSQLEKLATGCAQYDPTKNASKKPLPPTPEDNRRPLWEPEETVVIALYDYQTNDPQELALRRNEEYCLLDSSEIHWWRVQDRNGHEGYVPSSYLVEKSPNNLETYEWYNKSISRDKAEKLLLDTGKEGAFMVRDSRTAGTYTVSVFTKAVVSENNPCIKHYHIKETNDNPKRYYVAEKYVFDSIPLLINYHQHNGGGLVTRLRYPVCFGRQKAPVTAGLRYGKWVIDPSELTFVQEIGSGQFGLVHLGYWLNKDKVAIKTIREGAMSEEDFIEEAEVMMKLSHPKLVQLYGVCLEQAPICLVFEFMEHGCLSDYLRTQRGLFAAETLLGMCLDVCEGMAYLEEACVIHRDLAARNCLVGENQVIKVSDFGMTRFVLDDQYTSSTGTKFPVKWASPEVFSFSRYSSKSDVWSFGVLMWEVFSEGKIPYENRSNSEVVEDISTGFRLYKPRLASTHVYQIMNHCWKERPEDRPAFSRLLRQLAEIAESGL
In words: Inhibition of ITK expressed in Escherichia coli or baculovirus-infected insect cells at 667 uM by TR-FRET assay.

Test [8] deals with Phosphatidylinositol 4,5-bisphosphate 3-kinase catalytic subunit alpha isoform (Homo sapiens) (UniProt P42336). In words: Inhibition of PI3Kalpha expressed in Escherichia coli or baculovirus-infected insect cells using gamma-[33P]ATP at 400 uM by scintillation proximity assay.
In test [9] the target is T3, Phosphatidylinositol 4,5-bisphosphate 3-kinase catalytic subunit delta isoform (Homo sapiens) (UniProt O00329).
T3 sequence (whole entry): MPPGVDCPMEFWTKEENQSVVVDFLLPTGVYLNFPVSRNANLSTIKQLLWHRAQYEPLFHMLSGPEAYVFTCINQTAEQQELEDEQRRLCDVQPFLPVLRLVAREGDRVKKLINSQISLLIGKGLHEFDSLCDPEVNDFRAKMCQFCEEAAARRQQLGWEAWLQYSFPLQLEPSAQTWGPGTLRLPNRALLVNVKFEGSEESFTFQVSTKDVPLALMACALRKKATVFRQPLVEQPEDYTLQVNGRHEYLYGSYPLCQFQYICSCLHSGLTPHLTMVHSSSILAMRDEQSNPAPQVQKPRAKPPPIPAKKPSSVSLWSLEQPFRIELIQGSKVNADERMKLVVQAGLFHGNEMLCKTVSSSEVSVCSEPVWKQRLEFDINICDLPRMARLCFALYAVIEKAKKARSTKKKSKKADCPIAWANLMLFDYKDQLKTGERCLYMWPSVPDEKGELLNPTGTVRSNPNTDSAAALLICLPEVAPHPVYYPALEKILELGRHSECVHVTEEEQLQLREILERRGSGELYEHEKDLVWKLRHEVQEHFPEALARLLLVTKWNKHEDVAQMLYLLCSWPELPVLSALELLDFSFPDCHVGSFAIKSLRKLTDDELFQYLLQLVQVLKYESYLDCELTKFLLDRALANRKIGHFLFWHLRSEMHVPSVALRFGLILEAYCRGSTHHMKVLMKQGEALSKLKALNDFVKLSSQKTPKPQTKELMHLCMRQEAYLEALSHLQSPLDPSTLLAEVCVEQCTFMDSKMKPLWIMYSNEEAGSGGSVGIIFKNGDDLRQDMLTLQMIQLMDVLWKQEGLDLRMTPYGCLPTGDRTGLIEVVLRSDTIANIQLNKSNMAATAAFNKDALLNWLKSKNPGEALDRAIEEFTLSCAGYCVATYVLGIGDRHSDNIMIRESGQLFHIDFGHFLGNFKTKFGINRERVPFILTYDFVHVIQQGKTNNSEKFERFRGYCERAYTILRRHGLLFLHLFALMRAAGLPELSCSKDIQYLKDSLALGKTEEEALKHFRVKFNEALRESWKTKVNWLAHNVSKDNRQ
In words: Inhibition of PI3Kdelta expressed in Escherichia coli or baculovirus-infected insect cells using gamma-[33P]ATP at 400 uM by scintillation proximity assay.

For test [10], the target named is Tyrosine-protein kinase SYK (Homo sapiens, UniProt P43405). In words: Inhibition of SYK expressed in Escherichia coli or baculovirus-infected insect cells at 667 uM by TR-FRET assay.
For test [11], the target named is Serine/threonine-protein kinase PAK 1 (Homo sapiens) (UniProt Q13153). In words: Inhibition of PAK1 expressed in Escherichia coli or baculovirus-infected insect cells at 400 uM by IMAP assay.
Chain of Serine/threonine-protein kinase PAK 1 (Homo sapiens) (Q13153 whole entry): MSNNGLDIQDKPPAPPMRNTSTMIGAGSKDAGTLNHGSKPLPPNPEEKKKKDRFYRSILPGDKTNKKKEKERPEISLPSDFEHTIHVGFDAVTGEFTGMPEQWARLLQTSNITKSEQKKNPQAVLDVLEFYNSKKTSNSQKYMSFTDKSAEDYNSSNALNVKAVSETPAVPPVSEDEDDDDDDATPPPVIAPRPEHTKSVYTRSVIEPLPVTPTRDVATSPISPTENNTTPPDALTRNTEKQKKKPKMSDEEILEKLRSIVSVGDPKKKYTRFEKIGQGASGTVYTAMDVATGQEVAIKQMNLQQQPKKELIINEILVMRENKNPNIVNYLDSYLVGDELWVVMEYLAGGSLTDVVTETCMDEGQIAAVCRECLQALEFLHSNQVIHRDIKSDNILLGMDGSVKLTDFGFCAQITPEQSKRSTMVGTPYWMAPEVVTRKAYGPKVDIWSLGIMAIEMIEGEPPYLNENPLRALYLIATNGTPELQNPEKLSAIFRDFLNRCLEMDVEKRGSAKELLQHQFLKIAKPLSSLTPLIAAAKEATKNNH

Chain of Serine/threonine-protein kinase B-raf (Homo sapiens) (P15056 whole entry): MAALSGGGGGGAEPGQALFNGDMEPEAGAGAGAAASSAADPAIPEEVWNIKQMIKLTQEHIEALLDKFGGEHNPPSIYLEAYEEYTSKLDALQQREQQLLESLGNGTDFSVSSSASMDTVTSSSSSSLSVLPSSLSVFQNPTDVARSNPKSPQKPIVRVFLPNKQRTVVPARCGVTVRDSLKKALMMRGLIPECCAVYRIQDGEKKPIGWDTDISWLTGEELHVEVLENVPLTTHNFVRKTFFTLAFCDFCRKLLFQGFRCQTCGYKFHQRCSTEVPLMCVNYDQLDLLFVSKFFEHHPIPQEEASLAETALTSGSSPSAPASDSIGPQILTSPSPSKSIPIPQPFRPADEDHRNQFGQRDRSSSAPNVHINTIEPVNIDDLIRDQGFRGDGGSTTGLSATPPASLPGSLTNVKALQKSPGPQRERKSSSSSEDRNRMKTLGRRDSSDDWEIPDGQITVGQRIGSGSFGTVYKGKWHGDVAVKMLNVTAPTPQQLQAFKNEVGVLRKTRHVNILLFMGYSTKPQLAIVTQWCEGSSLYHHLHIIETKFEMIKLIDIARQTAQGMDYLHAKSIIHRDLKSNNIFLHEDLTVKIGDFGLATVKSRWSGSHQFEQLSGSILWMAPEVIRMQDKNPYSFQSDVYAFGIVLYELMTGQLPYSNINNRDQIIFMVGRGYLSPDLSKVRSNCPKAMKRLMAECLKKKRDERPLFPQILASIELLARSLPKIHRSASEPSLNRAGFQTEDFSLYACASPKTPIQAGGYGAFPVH
Chain of Phosphatidylinositol 4,5-bisphosphate 3-kinase catalytic subunit gamma isoform (Homo sapiens) (P48736 whole entry, looked up, canonical isoform): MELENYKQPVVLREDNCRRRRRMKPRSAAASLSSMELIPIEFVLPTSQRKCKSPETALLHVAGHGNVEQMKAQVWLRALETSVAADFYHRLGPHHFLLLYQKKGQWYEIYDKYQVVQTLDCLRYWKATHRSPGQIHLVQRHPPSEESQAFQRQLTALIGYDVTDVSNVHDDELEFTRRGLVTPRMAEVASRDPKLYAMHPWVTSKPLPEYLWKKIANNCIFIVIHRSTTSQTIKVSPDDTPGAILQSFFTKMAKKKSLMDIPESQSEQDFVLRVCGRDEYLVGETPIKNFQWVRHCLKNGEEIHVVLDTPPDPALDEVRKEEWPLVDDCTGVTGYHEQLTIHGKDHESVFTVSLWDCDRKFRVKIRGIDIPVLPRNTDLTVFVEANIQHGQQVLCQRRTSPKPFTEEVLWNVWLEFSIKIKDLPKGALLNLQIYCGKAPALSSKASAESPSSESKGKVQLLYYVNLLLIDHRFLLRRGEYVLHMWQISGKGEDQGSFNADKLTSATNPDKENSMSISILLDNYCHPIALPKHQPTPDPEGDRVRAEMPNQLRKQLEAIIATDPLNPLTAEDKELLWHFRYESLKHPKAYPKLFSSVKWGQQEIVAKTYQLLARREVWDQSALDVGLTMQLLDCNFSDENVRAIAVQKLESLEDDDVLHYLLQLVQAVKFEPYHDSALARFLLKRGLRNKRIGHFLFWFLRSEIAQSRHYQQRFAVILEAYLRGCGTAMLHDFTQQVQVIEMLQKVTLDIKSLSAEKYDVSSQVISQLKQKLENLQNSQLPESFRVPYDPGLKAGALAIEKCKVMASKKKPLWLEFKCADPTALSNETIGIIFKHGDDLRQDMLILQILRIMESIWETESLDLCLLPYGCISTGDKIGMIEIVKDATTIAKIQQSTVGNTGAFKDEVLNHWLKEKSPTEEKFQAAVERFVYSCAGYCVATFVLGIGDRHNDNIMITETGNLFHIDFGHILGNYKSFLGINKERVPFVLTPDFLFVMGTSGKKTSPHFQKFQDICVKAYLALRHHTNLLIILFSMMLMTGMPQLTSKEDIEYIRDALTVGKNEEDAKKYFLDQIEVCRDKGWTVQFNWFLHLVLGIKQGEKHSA
Chain of Phosphatidylinositol 4,5-bisphosphate 3-kinase catalytic subunit alpha isoform (Homo sapiens) (P42336 whole entry, canonical isoform): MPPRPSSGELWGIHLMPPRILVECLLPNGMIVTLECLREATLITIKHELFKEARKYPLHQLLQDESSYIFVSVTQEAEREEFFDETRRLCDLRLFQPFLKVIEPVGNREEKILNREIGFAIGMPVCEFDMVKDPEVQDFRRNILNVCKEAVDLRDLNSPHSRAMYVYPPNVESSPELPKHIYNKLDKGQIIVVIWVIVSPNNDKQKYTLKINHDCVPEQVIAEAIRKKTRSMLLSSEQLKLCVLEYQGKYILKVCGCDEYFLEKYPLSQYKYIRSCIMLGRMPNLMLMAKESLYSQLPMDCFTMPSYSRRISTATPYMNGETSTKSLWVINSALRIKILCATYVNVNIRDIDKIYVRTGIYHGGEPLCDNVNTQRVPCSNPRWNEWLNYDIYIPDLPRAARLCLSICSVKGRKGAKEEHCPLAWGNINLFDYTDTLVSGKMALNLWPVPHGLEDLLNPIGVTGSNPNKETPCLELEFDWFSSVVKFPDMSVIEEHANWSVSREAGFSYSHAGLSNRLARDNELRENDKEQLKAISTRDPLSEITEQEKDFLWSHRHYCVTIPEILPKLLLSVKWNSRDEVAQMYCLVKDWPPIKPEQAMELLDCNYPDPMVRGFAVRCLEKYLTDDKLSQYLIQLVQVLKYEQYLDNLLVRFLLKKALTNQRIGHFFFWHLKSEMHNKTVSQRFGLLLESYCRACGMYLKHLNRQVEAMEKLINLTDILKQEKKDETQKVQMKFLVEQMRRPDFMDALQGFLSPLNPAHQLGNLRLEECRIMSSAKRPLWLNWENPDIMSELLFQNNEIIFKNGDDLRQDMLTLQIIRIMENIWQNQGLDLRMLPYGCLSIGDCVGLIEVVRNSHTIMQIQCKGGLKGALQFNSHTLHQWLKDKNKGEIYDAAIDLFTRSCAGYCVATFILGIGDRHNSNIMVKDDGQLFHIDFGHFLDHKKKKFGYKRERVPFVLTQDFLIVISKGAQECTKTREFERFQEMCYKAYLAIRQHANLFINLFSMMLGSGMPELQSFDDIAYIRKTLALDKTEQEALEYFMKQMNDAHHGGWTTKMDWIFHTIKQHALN
Chain of Mitogen-activated protein kinase 8 (P45983 whole entry): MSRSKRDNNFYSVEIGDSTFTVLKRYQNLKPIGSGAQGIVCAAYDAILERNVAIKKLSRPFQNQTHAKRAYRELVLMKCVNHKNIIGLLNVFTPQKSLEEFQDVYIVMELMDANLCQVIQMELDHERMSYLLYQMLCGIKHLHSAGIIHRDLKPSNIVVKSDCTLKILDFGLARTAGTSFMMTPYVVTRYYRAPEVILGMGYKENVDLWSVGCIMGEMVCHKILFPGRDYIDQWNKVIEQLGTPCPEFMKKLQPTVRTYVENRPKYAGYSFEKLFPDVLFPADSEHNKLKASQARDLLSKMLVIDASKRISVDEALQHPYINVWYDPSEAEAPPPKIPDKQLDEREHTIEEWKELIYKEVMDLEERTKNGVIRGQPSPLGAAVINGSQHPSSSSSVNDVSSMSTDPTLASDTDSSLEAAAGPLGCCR
Chain of Glycogen synthase kinase-3 beta (Homo sapiens) (P49841 whole entry, looked up): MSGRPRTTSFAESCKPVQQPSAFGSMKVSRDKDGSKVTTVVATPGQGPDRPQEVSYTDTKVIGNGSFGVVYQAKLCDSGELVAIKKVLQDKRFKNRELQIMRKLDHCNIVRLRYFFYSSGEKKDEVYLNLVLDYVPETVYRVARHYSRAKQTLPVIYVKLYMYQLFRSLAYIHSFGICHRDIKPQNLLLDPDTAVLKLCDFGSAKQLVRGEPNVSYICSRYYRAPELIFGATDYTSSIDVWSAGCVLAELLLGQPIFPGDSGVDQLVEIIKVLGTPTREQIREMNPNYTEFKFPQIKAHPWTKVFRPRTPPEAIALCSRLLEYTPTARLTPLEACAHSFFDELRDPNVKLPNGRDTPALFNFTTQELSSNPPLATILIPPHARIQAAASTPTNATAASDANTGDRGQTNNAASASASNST
Chain of RAC-alpha serine/threonine-protein kinase (P31749 whole entry): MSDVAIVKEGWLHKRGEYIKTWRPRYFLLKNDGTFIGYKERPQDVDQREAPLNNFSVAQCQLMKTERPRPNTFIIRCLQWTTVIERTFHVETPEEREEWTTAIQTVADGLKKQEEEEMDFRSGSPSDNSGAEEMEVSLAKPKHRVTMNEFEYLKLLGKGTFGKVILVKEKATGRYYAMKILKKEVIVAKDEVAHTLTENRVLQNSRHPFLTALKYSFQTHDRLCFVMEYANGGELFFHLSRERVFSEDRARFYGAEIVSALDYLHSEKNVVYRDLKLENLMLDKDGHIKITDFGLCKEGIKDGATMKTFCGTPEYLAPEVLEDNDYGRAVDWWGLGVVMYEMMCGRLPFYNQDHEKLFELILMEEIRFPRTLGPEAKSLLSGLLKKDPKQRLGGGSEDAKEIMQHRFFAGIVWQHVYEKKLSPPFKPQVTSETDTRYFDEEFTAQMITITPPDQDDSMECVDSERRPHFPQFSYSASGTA

For `Nc1ncccc1OCc1ccccc1`, the inhibition in test [1] came to 100%; in [2], 18%; in [3], 29%; in test [4], 40%; in test [5], 100%; in test [6], 92%. The inhibition in test [7] is 12%; in [8] it was 59%; in test [9], 36%; in [10] it was 51%.
Regarding `c1cnc2[nH]ccc2c1`, the inhibition stood at 20% in test [1]; 15% in [2]; 48% in test [3]; 36% in [4]; 19% in [5]; 21% in [6]. In addition, the inhibition in [7] was 44%; in test [8], 16%; in test [9] it was 22%; in test [10], 27%.
`c1ccc2[nH]ncc2c1` [INDAZOLE]: the inhibition in test [1] amounted to 0%; in test [2], 13%; in test [3] it was 24%; in test [4], 37%; in test [5], 0%; in [6], 35%. Moreover, the inhibition in test [7] was 26%; in [11], 12%; in test [8], 6%; in test [9] it was 10%; in [10], 21%.
In the case of `c1ccc(Nc2ncccn2)cc1`, the inhibition stood at 16% in [1]; 74% in test [2]; 21% in test [3]; 89% in test [4]; 10% in test [5]; 55% in test [6]. Also, the inhibition in test [7] was 69%; in [11], 19%; in [8], 14%; in [9], 19%; in test [10], 94%.
